Test results: PubChem BioAssay (NCI)
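48-hour exposure; five concentrations; linearly interpolated endpoints. GI50: concentration for 50% inhibition of growth. TGI denotes the concentration required for complete inhibition of growth.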

Experiments:
Assay in all cases: NCI tumour cell line growth inhibition, 48 h
SF-268 CNS = system: SF-268 CNS
NCI-H522 lung = system: NCI-H522 lung
HL-60(TB) leukemia = system: HL-60(TB) leukemia
MOLT-4 leukemia = system: MOLT-4 leukemia
HCT-116 colon = system: HCT-116 colon
NCI-H226 lung = system: NCI-H226 lung
UACC-62 melanoma = system: UACC-62 melanoma
BT-549 breast = system: BT-549 breast
K-562 leukemia = system: K-562 leukemia
MDA-N = system: MDA-N
IGROV1 ovarian = system: IGROV1 ovarian
SK-OV-3 ovarian = system: SK-OV-3 ovarian
RPMI-8226 leukemia = system: RPMI-8226 leukemia
OVCAR-5 ovarian = system: OVCAR-5 ovarian
SNB-19 CNS = system: SNB-19 CNS
NCI-H460 lung = system: NCI-H460 lung
SN12C renal = system: SN12C renal
SNB-75 CNS = system: SNB-75 CNS
MALME-3M melanoma = system: MALME-3M melanoma
CCRF-CEM leukemia = system: CCRF-CEM leukemia
HT29 colon = system: HT29 colon
EKVX NSCLC = system: EKVX NSCLC
KM12 colon = system: KM12 colon
SF-295 CNS = system: SF-295 CNS
OVCAR-3 ovarian = system: OVCAR-3 ovarian
SK-MEL-5 melanoma = system: SK-MEL-5 melanoma
MCF7 breast = system: MCF7 breast
SW-620 colon = system: SW-620 colon
HCT-15 colon = system: HCT-15 colon
UACC-257 melanoma = system: UACC-257 melanoma
RXF 393 renal = system: RXF 393 renal
SK-MEL-28 melanoma = system: SK-MEL-28 melanoma
HOP-92 NSCLC = system: HOP-92 NSCLC
TK-10 renal = system: TK-10 renal
MDA-MB-435 = system: MDA-MB-435
NCI-H23 lung = system: NCI-H23 lung
A498 renal = system: A498 renal
SK-MEL-2 melanoma = system: SK-MEL-2 melanoma
A549 NSCLC = system: A549 NSCLC
SR leukemia = system: SR leukemia
T-47D breast = system: T-47D breast
U251 CNS = system: U251 CNS
UO-31 renal = system: UO-31 renal
CAKI-1 renal = system: CAKI-1 renal
DU-145 prostate = system: DU-145 prostate
NCI/ADR-RES ovarian = system: NCI/ADR-RES ovarian
PC-3 prostate = system: PC-3 prostate
COLO 205 colon = system: COLO 205 colon
M14 melanoma = system: M14 melanoma
LOX IMVI melanoma = system: LOX IMVI melanoma
SF-539 CNS = system: SF-539 CNS
ACHN renal = system: ACHN renal
OVCAR-4 ovarian = system: OVCAR-4 ovarian
786-0 renal = system: 786-0 renal
OVCAR-8 ovarian = system: OVCAR-8 ovarian
HOP-62 NSCLC = system: HOP-62 NSCLC
MDA-MB-231 breast = system: MDA-MB-231 breast
HCC-2998 colon = system: HCC-2998 colon
HS 578T breast = system: HS 578T breast

BrC1=C(Br)C2(SCCS2)[C@H]2C[C@@H]1c1ccccc12 was tested, and the TGI (SF-268 CNS) was > 100000 nM, the TGI (NCI-H522 lung) was > 100000 nM and the TGI (HL-60(TB) leukemia) was > 100000 nM. For the same compound, the TGI (MOLT-4 leukemia) was > 100000 nM, the TGI (HCT-116 colon) was > 100000 nM and the TGI (NCI-H226 lung) was > 100000 nM. For the same compound, the TGI (UACC-62 melanoma) was > 100000 nM, the TGI (BT-549 breast) was > 100000 nM and the TGI (K-562 leukemia) was > 100000 nM. For the same compound, the TGI (MDA-N) was > 26200 nM, the TGI (IGROV1 ovarian) was > 100000 nM and the TGI (SK-OV-3 ovarian) was > 100000 nM. For the same compound, the TGI (RPMI-8226 leukemia) was > 100000 nM, the TGI (OVCAR-5 ovarian) was > 100000 nM and the TGI (SNB-19 CNS) was > 100000 nM. The TGI (NCI-H460 lung) was > 100000 nM, the TGI (SN12C renal) was > 100000 nM and the TGI (SNB-75 CNS) was > 85900 nM. The TGI (MALME-3M melanoma) was > 100000 nM, the TGI (CCRF-CEM leukemia) was > 100000 nM and the TGI (HT29 colon) was > 100000 nM. For the same compound, the TGI (EKVX NSCLC) was > 100000 nM, the TGI (KM12 colon) was > 100000 nM and the TGI (SF-295 CNS) was > 100000 nM. For the same compound, the TGI (OVCAR-3 ovarian) was > 100000 nM, the TGI (SK-MEL-5 melanoma) was > 41600 nM and the TGI (MCF7 breast) was > 100000 nM. The TGI (SW-620 colon) was > 100000 nM, the TGI (HCT-15 colon) was > 100000 nM and the TGI (UACC-257 melanoma) was > 100000 nM. The TGI (RXF 393 renal) was > 100000 nM, the TGI (SK-MEL-28 melanoma) was > 100000 nM and the TGI (HOP-92 NSCLC) was > 100000 nM. The TGI (TK-10 renal) was > 100000 nM, the TGI (MDA-MB-435) was > 100000 nM and the TGI (NCI-H23 lung) was > 100000 nM. The TGI (A498 renal) was > 100000 nM, the TGI (SK-MEL-2 melanoma) was > 100000 nM and the TGI (A549 NSCLC) was > 100000 nM. For the same compound, the TGI (SR leukemia) was 75000 nM, the TGI (T-47D breast) was > 100000 nM and the TGI (U251 CNS) was > 100000 nM. The TGI (UO-31 renal) was > 62300 nM, the TGI (CAKI-1 renal) was > 100000 nM and the TGI (DU-145 prostate) was > 100000 nM. For the same compound, the TGI (NCI/ADR-RES ovarian) was > 100000 nM, the TGI (PC-3 prostate) was > 100000 nM and the TGI (COLO 205 colon) was > 100000 nM. For the same compound, the TGI (M14 melanoma) was > 100000 nM, the TGI (LOX IMVI melanoma) was > 100000 nM and the TGI (SF-539 CNS) was > 100000 nM. The TGI (ACHN renal) was > 100000 nM, the TGI (OVCAR-4 ovarian) was > 100000 nM and the TGI (786-0 renal) was > 100000 nM. For the same compound, the TGI (OVCAR-8 ovarian) was > 100000 nM, the TGI (HOP-62 NSCLC) was > 100000 nM and the TGI (MDA-MB-231 breast) was > 100000 nM. The TGI (HCC-2998 colon) was > 89600 nM.

For O=C(Nc1ccc(Br)cc1F)c1cc(F)ccc1O, the GI50 (SF-268 CNS) was 558 nM, the TGI (SF-268 CNS) was 10100 nM and the GI50 (NCI-H522 lung) was 319 nM. It also gave a TGI (NCI-H522 lung) of 4470 nM, a GI50 (HL-60(TB) leukemia) of 485 nM and a TGI (HL-60(TB) leukemia) of 2890 nM. The GI50 (MOLT-4 leukemia) was 1860 nM, the TGI (MOLT-4 leukemia) was 6400 nM and the GI50 (HCT-116 colon) was 440 nM. The TGI (HCT-116 colon) was 1960 nM, the GI50 (NCI-H226 lung) was 670 nM and the TGI (NCI-H226 lung) was 3460 nM. The GI50 (UACC-62 melanoma) was 285 nM, the TGI (UACC-62 melanoma) was 1000 nM and the GI50 (BT-549 breast) was 356 nM. For the same compound, the TGI (BT-549 breast) was 1400 nM, the GI50 (K-562 leukemia) was 445 nM and the TGI (K-562 leukemia) was > 100000 nM. For the same compound, the GI50 (IGROV1 ovarian) was 370 nM, the TGI (IGROV1 ovarian) was > 100000 nM and the GI50 (SK-OV-3 ovarian) was 405 nM. The TGI (SK-OV-3 ovarian) was 2550 nM, the GI50 (RPMI-8226 leukemia) was 296 nM and the TGI (RPMI-8226 leukemia) was 1360 nM. For the same compound, the GI50 (OVCAR-5 ovarian) was 3850 nM, the TGI (OVCAR-5 ovarian) was > 100000 nM and the GI50 (SNB-19 CNS) was 419 nM. The TGI (SNB-19 CNS) was > 100000 nM, the GI50 (NCI-H460 lung) was 491 nM and the TGI (NCI-H460 lung) was 9750 nM. The GI50 (SN12C renal) was 366 nM, the TGI (SN12C renal) was 2920 nM and the GI50 (SNB-75 CNS) was 225 nM. It also gave a TGI (SNB-75 CNS) of 2110 nM, a GI50 (MALME-3M melanoma) of 335 nM and a TGI (MALME-3M melanoma) of 1530 nM. It also gave a GI50 (CCRF-CEM leukemia) of 2400 nM, a TGI (CCRF-CEM leukemia) of 13900 nM and a GI50 (HT29 colon) of 3190 nM. For the same compound, the TGI (HT29 colon) was > 36700 nM, the GI50 (EKVX NSCLC) was 1300 nM and the TGI (EKVX NSCLC) was 7380 nM. For the same compound, the GI50 (KM12 colon) was 2040 nM, the TGI (KM12 colon) was 5450 nM and the GI50 (SF-295 CNS) was 1760 nM. It also gave a TGI (SF-295 CNS) of 3420 nM, a GI50 (OVCAR-3 ovarian) of 411 nM and a TGI (OVCAR-3 ovarian) of 6640 nM. It also gave a GI50 (SK-MEL-5 melanoma) of 227 nM, a TGI (SK-MEL-5 melanoma) of 541 nM and a GI50 (MCF7 breast) of 1290 nM. For the same compound, the TGI (MCF7 breast) was 7140 nM, the GI50 (SW-620 colon) was 805 nM and the TGI (SW-620 colon) was 15400 nM. For the same compound, the GI50 (HCT-15 colon) was 773 nM, the TGI (HCT-15 colon) was 7340 nM and the GI50 (UACC-257 melanoma) was 466 nM. The TGI (UACC-257 melanoma) was 4000 nM, the GI50 (RXF 393 renal) was 554 nM and the TGI (RXF 393 renal) was 3100 nM. It also gave a GI50 (SK-MEL-28 melanoma) of 377 nM, a TGI (SK-MEL-28 melanoma) of 1840 nM and a GI50 (HOP-92 NSCLC) of 192 nM. For the same compound, the TGI (HOP-92 NSCLC) was 566 nM, the GI50 (TK-10 renal) was 3260 nM and the TGI (TK-10 renal) was 18000 nM. The GI50 (MDA-MB-435) was 539 nM, the TGI (MDA-MB-435) was 4410 nM and the GI50 (NCI-H23 lung) was 386 nM. It also gave a TGI (NCI-H23 lung) of 3150 nM, a GI50 (A498 renal) of 172 nM and a TGI (A498 renal) of 667 nM. For the same compound, the GI50 (SK-MEL-2 melanoma) was 398 nM, the TGI (SK-MEL-2 melanoma) was 2560 nM and the GI50 (A549 NSCLC) was 1690 nM. For the same compound, the TGI (A549 NSCLC) was > 100000 nM, the GI50 (SR leukemia) was 476 nM and the TGI (SR leukemia) was > 100000 nM. For the same compound, the GI50 (T-47D breast) was 511 nM, the TGI (T-47D breast) was 5590 nM and the GI50 (U251 CNS) was 609 nM. The TGI (U251 CNS) was > 100000 nM, the GI50 (UO-31 renal) was 210 nM and the TGI (UO-31 renal) was 1270 nM. The GI50 (CAKI-1 renal) was 314 nM, the TGI (CAKI-1 renal) was 2620 nM and the GI50 (DU-145 prostate) was 698 nM. It also gave a TGI (DU-145 prostate) of 64600 nM, a GI50 (HS 578T breast) of 405 nM and a TGI (HS 578T breast) of 4390 nM. It also gave a GI50 (NCI/ADR-RES ovarian) of 533 nM, a TGI (NCI/ADR-RES ovarian) of 5400 nM and a GI50 (PC-3 prostate) of 1150 nM. The TGI (PC-3 prostate) was 7240 nM, the GI50 (COLO 205 colon) was 2460 nM and the TGI (COLO 205 colon) was 6560 nM. The GI50 (M14 melanoma) was 514 nM, the TGI (M14 melanoma) was 4070 nM and the GI50 (LOX IMVI melanoma) was 405 nM. It also gave a TGI (LOX IMVI melanoma) of 2910 nM, a GI50 (SF-539 CNS) of 420 nM and a TGI (SF-539 CNS) of 4200 nM. For the same compound, the GI50 (ACHN renal) was 499 nM, the TGI (ACHN renal) was 11300 nM and the GI50 (OVCAR-4 ovarian) was 612 nM. The TGI (OVCAR-4 ovarian) was > 27800 nM, the GI50 (786-0 renal) was 2410 nM and the TGI (786-0 renal) was 7490 nM. For the same compound, the GI50 (OVCAR-8 ovarian) was 1300 nM, the TGI (OVCAR-8 ovarian) was 15000 nM and the GI50 (HOP-62 NSCLC) was 1560 nM. For the same compound, the TGI (HOP-62 NSCLC) was 7820 nM, the GI50 (MDA-MB-231 breast) was 410 nM and the TGI (MDA-MB-231 breast) was 4000 nM. It also gave a GI50 (HCC-2998 colon) of 2370 nM and a TGI (HCC-2998 colon) of 8450 nM.
